Laboratory results as given in patent US11433090B2, “mTOR-inhibitor-containing medicine for treating or preventing ophthalmic symptoms, disorders, or diseases, and application thereof” (The Doshisha, priority 2017, dated 2022).

How the values were obtained:
cleaved caspase 3 = assay: Western blot of cleaved caspase 3 after TGF-β2 stimulation in iFECD; type: cell-based, human; conditions: 3 pmol mTOR siRNA, then TGF-β2 10 ng/ml 24 h, FIG. 8
Experimental: (§1) The medium was removed from a culture dish in which iFECDs were being cultured, and the cells were supplemented with 1×PBS (−) that was preheated to 37° C., and were washed. This was repeated twice. The cells were supplemented again with 1×PBS (−) and incubated for 3 minutes at 37° C. (5% CO2). After removing the PBS (−), the cells were supplemented with 0.05% Trypsin-EDTA (Nacalai Tesque, 32778-34) and incubated for 5 minutes at 37° C. (5% CO2). The cells were then suspended in a medium, and collected by centrifugation at 1500 rpm for 3 minutes. DMEM (Nacalai Tesque, 08456-36)+10% FBS (Biowest, S1820-500)+1% P/S (Nacalai Tesque, 26252-94) was used as the medium.
iFECDs were seeded on a 12-well plate at a ratio of 1×10^5 cells per well and cultured for 24 hours at 37° C. (5% CO2) (DMEM+10% FBS+1% P/S was used as the medium). After 24 hours, the medium was removed. Rapamycin was added to culture the cells for 24 hours. (DMEM+2% FBS+1% P/S was used as the medium). After 24 hours, the medium was removed. A medium containing 10 ng/ml of Recombinant Human TGF-β2 (Wako, 200-19911) and rapamycin was added to culture the cells for 24 hours. […]
8 μg of the extracted protein was separated by SDS-PAGE and transferred onto a nitrocellulose membrane. […] The detected band strength was analyzed with a lumino image analyzer LAS-4000 mini (Fuji Film) and ImageQuant™ software (GE Healthcare). […]

mTOR = mTOR expression at protein level in iFECD (western blot); type: cell-based, human; conditions: 3 pmol mTOR siRNA, FIG. 6
Experimental: as §1
iFECDs were seeded on a 12-well plate at a ratio of 3×10^4 cells per well and cultured for 24 hours at 37° C. (5% CO2) (medium: DMEM+10% FBS+1% P/S). After 24 hours, the medium was removed. Lipofectamine (invitrogen, 92008) and 3 pmol of mTOR siRNA (Ambion, AS026M0L) were added to culture the cells for 24 hours (medium: OptiMEM-I (invitrogen, 31985-088)). The mTOR siRNA that was used has a sense strand set forth in SEQ ID NO: 1 and an antisense strand set forth in SEQ ID NO: 2. […]
5 μg of the extracted protein was separated by SDS-PAGE and transferred onto a nitrocellulose membrane. […] The detected band strength was analyzed with a lumino image analyzer LAS-4000 mini (Fuji Film) and ImageQuant™ software (GE Healthcare).

With “mTOR siRNA: siRNA against mTOR gene (Ambion, AS026M0L); sense strand SEQ ID NO: 1, antisense strand SEQ ID NO: 2 (sense CAUUCGCAUUCAGUCCAUATT; antisense UAUGGACUGAAUGCGAAUGAT; chemistry not given here)” the “activated form of cleaved caspase-3 (about 17 kDa), western blot” value (cleaved caspase 3) was “hardly observed” and the “mTOR expression, protein level (western blot)” value (mTOR) was “suppression was found”.
